Molecular target: T1, Human orexin receptor type 2 (Homo sapiens, UniProt O43614)
T1 construct: expressed in transfected cells; host or cells: CHO cells (transient expression)
T1 sequence (O43614 1-444): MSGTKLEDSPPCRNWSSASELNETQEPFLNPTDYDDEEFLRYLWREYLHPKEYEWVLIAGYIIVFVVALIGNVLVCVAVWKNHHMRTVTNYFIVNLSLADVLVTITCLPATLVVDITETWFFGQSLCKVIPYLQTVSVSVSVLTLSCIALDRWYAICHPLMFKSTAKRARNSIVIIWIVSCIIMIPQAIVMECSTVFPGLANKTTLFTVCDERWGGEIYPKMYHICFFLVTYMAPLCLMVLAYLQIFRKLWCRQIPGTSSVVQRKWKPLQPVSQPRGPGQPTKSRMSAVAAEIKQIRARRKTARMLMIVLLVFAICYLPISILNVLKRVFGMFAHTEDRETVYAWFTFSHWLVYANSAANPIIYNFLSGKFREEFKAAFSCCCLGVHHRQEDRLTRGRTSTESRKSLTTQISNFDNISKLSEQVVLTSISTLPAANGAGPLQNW
Experiment: Test 1: Evaluation of agonist activity for orexin receptor type 2 (aequorin luminescence, intracellular calcium mobilization in CHO cells)
Format: cell-based
Conditions: relative percentage of luminescence for the luminescence (100%) of Orexin A (100 pM); CHO cells transiently expressing human orexin receptor type 2 and apoaequorin; Orexin A Lot. 641114
Description: Test 1: Evaluation of Agonist Activity for Orexin Receptor Type 2
Human orexin receptor type 2 and apoaequorin were transiently expressed in CHO cells, and the agonist activity was evaluated based on intracellular calcium mobilization with ligand stimulation. The CHO cells transiently-expressed human orexin receptor type 2 and apoaequorin were seeded on a 384-well plate by 2,000 cells/well, and then incubated for 16-22 hours. After the plate was returned to room temperature, Coelenterazine hcp (final concentration: 1 μM) was added to the plate, and the plate was allowed to stand at room temperature for 2 hours. And then, Orexin A (PEPTIDE INSTITUTE, INC., Lot. 641114) or each test compound was added to the plate, and the luminescence of the cells was measured with FDSS7000 (Hamamatsu Photonics K.K.), wherein Orexin A and each test compound were dissolved in DMSO (final concentration: 0.1%), and diluted with a buffer (Hanks, 20 mM HEPES, 0.1% BSA). The agonist activity of each test compound for orexin receptor type 2 was calculated as relative percentage of luminescence for the luminescence (100%) of Orexin A (100 pM).

Compound	agonist activity (%)
CC(C)N1CCN([C@H]2CCCC(F)(F)[C@@H]2OC(=O)N2CCC(C)(c3noc(C4CC4)n3)CC2)CC1 (racemic) [Example 9, rac-(1R,6S)-2,2-difluoro-6-[4-(propan-2-yl)piperazin-1-yl]cyclohexyl 4-(5-cyclopropyl-1,2,4-oxadiazol-3-yl)-4-methylpiperidine-1-carboxylate]	207
COc1nc(C2(C)CCN(C(=O)N[C@@H]3[C@@H](N4CCN(C(C)C)CC4)CCCC3(F)F)CC2)ns1 (racemic) [Example 45, rac-N-{(1R,6S)-2,2-difluoro-6-[4-(propan-2-yl)piperazin-1-yl]cyclohexyl}-4-(5-methoxy-1,2,4-thiadiazol-3-yl)-4-methylpiperidine-1-carboxamide]	150
Cc1ccc(C2CCN(C(=O)N[C@@H]3[C@@H](N4CCN(C(C)C)CC4)CCCC3(F)F)CC2)cc1 (racemic) [Example 8, rac-N-{(1R,6S)-2,2-difluoro-6-[4-(propan-2-yl)piperazin-1-yl]cyclohexyl}-4-(4-methylphenyl)piperidine-1-carboxamide]	207
CC(C)N1CCN([C@@H]2CCCC(F)(F)[C@H]2NC(=O)N2CCC(C)(c3noc(C4CC4)n3)CC2)CC1 [Example 23, 4-(5-cyclopropyl-1,2,4-oxadiazol-3-yl)-N-{(1S,6R)-2,2-difluoro-6-[4-(propan-2-yl)piperazin-1-yl]cyclohexyl}-4-methylpiperidine-1-carboxamide]	104
CC(C)N1CCN([C@H]2CCCC(F)(F)[C@@H]2NC(=O)N2CCC(C)(c3nsc(C4CC4)n3)CC2)CC1 (racemic) [Example 31, rac-4-(5-cyclopropyl-1,2,4-thiadiazol-3-yl)-N-{(1R,6S)-2,2-difluoro-6-[4-(propan-2-yl)piperazin-1-yl]cyclohexyl}-4-methylpiperidine-1-carboxamide]	168
CC(C)N1CCN([C@H]2CCCC(F)(F)[C@@H]2NC(=O)N2CCC(O)(c3ccccn3)CC2)CC1 (racemic) [Example 37, rac-N-{(1R,6S)-2,2-difluoro-6-[4-(propan-2-yl)piperazin-1-yl]cyclohexyl}-4-hydroxy-4-(pyridin-2-yl)piperidine-1-carboxamide]	45
CC(C)N1CCN([C@H]2CCCC(F)(F)[C@@H]2NC(=O)N2CCC(C)(c3cc(C4CC4)on3)CC2)CC1 [Example 25, 4-(5-cyclopropyl-1,2-oxazol-3-yl)-N-{(1R,6S)-2,2-difluoro-6-[4-(propan-2-yl)piperazin-1-yl]cyclohexyl}-4-methylpiperidine-1-carboxamide]	165
CC(C)N1CCN([C@H]2CCCC(F)(F)[C@@H]2OC(=O)N2CCC(C)(c3cc(C4CC4)on3)CC2)CC1 (racemic) [Example 11, rac-(1R,6S)-2,2-difluoro-6-[4-(propan-2-yl)piperazin-1-yl]cyclohexyl 4-(5-cyclopropyl-1,2-oxazol-3-yl)-4-methylpiperidine-1-carboxylate]	211
Cc1ccc(C2CCN(C(=O)N[C@H]3CCC[C@@H]3N3CCN(C(C)C)CC3)CC2)cc1 (racemic) [Example 5, rac-4-(4-methylphenyl)-N-{(1S,2S)-2-[4-(propan-2-yl)piperazin-1-yl]cyclopentyl}piperidine-1-carboxamide]	103
CC(C)N1CCN([C@H]2CCCC(F)(F)[C@@H]2NC(=O)N2CCC(C)(Oc3ccccn3)CC2)CC1 (racemic) [Example 42, rac-N-{(1R,6S)-2,2-difluoro-6-[4-(propan-2-yl)piperazin-1-yl]cyclohexyl}-4-methyl-4-[(pyridin-2-yl)oxy]piperidine-1-carboxamide]	141
CC(C)N1CCN([C@H]2CCCC(F)(F)[C@@H]2OC(=O)N2CCC(C)(c3noc(C4CC4)n3)CC2)CC1 [Example 14, (1R,6S)-2,2-difluoro-6-[4-(propan-2-yl)piperazin-1-yl]cyclohexyl 4-(5-cyclopropyl-1,2,4-oxadiazol-3-yl)-4-methylpiperidine-1-carboxylate]	178
Cc1ccc(C2CCN(C(=O)N[C@H]3CCCC[C@@H]3N3CCN(C(C)C)CC3)CC2)cc1 (racemic) [Example 1, rac-4-(4-Methylphenyl)-N-{(1S,2S)-2-[4-(propan-2-yl)piperazin-1-yl]cyclohexyl}piperidine-1-carboxamide]	137
CC(C)N1CCN([C@H]2CCCC(F)(F)[C@@H]2NC(=O)N2CCC(O)(c3ccc(Cl)cc3)CC2)CC1 (racemic) [Example 41, rac-4-(4-chlorophenyl)-N-{(1R,6S)-2,2-difluoro-6-[4-(propan-2-yl)piperazin-1-yl]cyclohexyl}-4-hydroxypiperidine-1-carboxamide]	23
CC(C)N1CCN([C@H]2CCCC(F)(F)[C@@H]2NC(=O)N2CCC(C)(C3CCC(F)(F)CC3)CC2)CC1 (racemic) [Example 30, rac-4-(4,4-difluorocyclohexyl)-N-{(1R,6S)-2,2-difluoro-6-[4-(propan-2-yl)piperazin-1-yl]cyclohexyl}-4-methylpiperidine-1-carboxamide]	128
CC(C)N1CCN([C@H]2CCCC(F)(F)[C@@H]2NC(=O)N2CCC(c3ccc(F)cn3)CC2)CC1 (racemic) [Example 52, rac-N-{(1R,6S)-2,2-difluoro-6-[4-(propan-2-yl)piperazin-1-yl]cyclohexyl}-4-(5-fluoropyridin-2-yl)piperidine-1-carboxamide]	113
Cc1cnc(C2CCN(C(=O)N[C@@H]3[C@@H](N4CCN(C(C)C)CC4)CCCC3(F)F)CC2)c(F)c1 (racemic) [Example 51, rac-N-{(1R,6S)-2,2-difluoro-6-[4-(propan-2-yl)piperazin-1-yl]cyclohexyl}-4-(3-fluoro-5-methylpyridin-2-yl)piperidine-1-carboxamide]	149

Other lines, results leading:

agonist activity (%)	Compound
161	CC(C)N1CCN([C@H]2CCCC(F)(F)[C@@H]2NC(=O)N2CCC(C)(c3noc([C@@H]4C[C@@H]4C)n3)CC2)CC1 [Example 69, N-{(1R,6S)-2,2-difluoro-6-[4-(propan-2-yl)piperazin-1-yl]cyclohexyl}-4-methyl-4-{5-[(1R,2S)-2-methylcyclopropyl]-1,2,4-oxadiazol-3-yl}piperidine-1-carboxamide]
164	CC(C)N1CCN([C@H]2CCCC(F)(F)[C@@H]2NC(=O)N2CCC(C)(c3ccc(C(F)F)cc3)CC2)CC1 (racemic) [Example 59, rac-4-[4-(difluoromethyl)phenyl]-N-{(1R,6S)-2,2-difluoro-6-[4-(propan-2-yl)piperazin-1-yl]cyclohexyl}-4-methylpiperidine-1-carboxamide]
174	CC(C)N1CC[C@H](O[C@H]2CCCC(F)(F)[C@@H]2NC(=O)N2CCC(C)(c3noc([C@@H]4C[C@@H]4C)n3)CC2)C1 [Example 74, N-[(1R,6S)-2,2-difluoro-6-{[(3S)-1-(propan-2-yl)pyrrolidin-3-yl]oxy}cyclohexyl]-4-methyl-4-(5-[(1R,2S)-2-methylcyclopropyl]-1,2,4-oxadiazol-3-yl)piperidine-1-carboxamide]
141	CC(C)N1C[C@H](O[C@H]2CCCC(F)(F)[C@@H]2NC(=O)N2CCC(C)(c3noc(C4CC4)n3)CC2)[C@@H](F)C1 [Example 75, 4-(5-cyclopropyl-1,2,4-oxadiazol-3-yl)-N-[(1R,6S)-2,2-difluoro-6-{[(3S,4S)-4-fluoro-1-(propan-2-yl)pyrrolidin-3-yl]oxy}cyclohexyl]-4-methylpiperidine-1-carboxamide]
199	CC(C)N1CC[C@H](O[C@H]2CCCC(F)(F)[C@@H]2NC(=O)N2CCC(C)(c3noc(C4CC4)n3)CC2)C1 [Example 71, 4-(5-cyclopropyl-1,2,4-oxadiazol-3-yl)-N-[(1R,6S)-2,2-difluoro-6-{[(3S)-1-(propan-2-yl)pyrrolidin-3-yl]oxy}cyclohexyl]-4-methylpiperidine-1-carboxamide]
150	Cc1ccc(C2(C)CCN(C(=O)N[C@@H]3[C@@H](N4CCN(C(C)C)CC4)CCCC3(F)F)CC2)cc1 (racemic) [Example 58, rac-N-{(1R,6S)-2,2-difluoro-6-[4-(propan-2-yl)piperazin-1-yl]cyclohexyl}-4-methyl-4-(4-methylphenyl)piperidine-1-carboxamide]
158	Cc1ccc(C2CC=C(C(=O)N[C@@H]3[C@@H](N4CCN(C(C)C)CC4)CCCC3(F)F)CC2)cc1 (mixture of isomers) [Example 77, rac-N-{(1R,6S)-2,2-Difluoro-6-[4-(propan-2-yl)piperazin-1-yl]cyclohexyl}-4′-methyl-1,2,3,6-tetrahydro[1,1′-biphenyl]-4-carboxamide]

— patent US12162872B2, “Cycloalkylurea derivative” (Sumitomo Pharma Co., Ltd., priority 2019, dated 2024)
